Measurements as given in ChEMBL document CHEMBL5053551, “Structure-Based Design of Dual Partial Peroxisome Proliferator-Activated Receptor γ Agonists/Soluble Epoxide Hydrolase Inhibitors” (J Med Chem, 2021).
Activity calls are given as the source filed them. The rule behind the calls is not given here.

Columns and labels:
[1] = target: T1, Peroxisome proliferator-activated receptor delta (Homo sapiens) (UniProt Q03181); assay: Partial agonist activity at GAL4-tagged human PPARdelta LBD expressed in HEK293T cells at 3 uM incubated for 12 to 14 hrs by dual-Glo luciferase assay; format: cell-based; conditions: time 12-14 hrs
T1 sequence (whole entry): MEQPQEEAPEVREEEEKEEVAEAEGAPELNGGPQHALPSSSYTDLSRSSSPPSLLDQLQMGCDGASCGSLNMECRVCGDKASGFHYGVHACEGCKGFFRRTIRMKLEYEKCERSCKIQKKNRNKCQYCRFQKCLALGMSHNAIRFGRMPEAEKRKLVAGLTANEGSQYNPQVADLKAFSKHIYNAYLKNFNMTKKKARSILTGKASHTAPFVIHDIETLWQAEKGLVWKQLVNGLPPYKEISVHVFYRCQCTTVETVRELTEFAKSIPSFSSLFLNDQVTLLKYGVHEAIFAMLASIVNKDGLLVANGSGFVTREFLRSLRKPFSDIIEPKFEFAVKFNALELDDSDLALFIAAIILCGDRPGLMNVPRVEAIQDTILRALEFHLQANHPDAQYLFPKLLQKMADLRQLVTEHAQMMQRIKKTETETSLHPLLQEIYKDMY

HepG2 [2] = assay: Cytotoxicity agianst human HepG2 cells assessed as reduction in cell viability at 30 uM after 48 hrs by WST-1 assay; format: cell-based; conditions: hepg2, 48 h
HepG2 [3] = assay: Induction of cell proliferation in human HepG2 cells; format: functional, cell-based; conditions: dose 2.5-100 µM
[4] = target: T2, Bifunctional epoxide hydrolase 2 (Mus musculus, UniProt P34914); assay: Inhibition of N-terminal His-tagged mouse sEH (2 to 554 residues) expressed in Escherichia coli Rosetta2 (DE3) assessed as reduction in 6-methoxy-2-naphthaldehyde formation using PHOME as substrate preincubated for 30 to 45 mins followed by substrate addition and measured after 30 to 45 mins by fluorescence assay
T2 sequence (P34914 whole entry): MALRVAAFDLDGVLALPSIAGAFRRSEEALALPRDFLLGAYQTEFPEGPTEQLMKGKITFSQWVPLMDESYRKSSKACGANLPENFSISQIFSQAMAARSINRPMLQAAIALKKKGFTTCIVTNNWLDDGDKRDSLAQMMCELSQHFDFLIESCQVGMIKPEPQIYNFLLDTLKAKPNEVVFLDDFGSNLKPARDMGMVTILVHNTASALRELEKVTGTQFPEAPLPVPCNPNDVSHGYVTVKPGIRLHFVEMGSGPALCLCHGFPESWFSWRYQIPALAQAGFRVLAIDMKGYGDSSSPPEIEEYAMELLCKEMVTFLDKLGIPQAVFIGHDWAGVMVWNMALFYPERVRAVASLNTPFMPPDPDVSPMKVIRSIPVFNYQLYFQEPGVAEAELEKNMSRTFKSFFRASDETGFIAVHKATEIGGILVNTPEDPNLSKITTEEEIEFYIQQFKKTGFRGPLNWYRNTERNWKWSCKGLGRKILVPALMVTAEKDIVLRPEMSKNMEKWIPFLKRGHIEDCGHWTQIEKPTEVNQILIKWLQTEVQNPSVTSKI

[5] = target: T3, Peroxisome proliferator-activated receptor gamma (Homo sapiens, UniProt P37231); assay: Partial agonist activity at recombinant sGSF-PPARgamma (unknown origin) assessed as reduction in rosiglitazone induced CBP-1 recruitment incubated for 1 hr by HTRF competitive assay
T3 sequence (P37231 whole entry): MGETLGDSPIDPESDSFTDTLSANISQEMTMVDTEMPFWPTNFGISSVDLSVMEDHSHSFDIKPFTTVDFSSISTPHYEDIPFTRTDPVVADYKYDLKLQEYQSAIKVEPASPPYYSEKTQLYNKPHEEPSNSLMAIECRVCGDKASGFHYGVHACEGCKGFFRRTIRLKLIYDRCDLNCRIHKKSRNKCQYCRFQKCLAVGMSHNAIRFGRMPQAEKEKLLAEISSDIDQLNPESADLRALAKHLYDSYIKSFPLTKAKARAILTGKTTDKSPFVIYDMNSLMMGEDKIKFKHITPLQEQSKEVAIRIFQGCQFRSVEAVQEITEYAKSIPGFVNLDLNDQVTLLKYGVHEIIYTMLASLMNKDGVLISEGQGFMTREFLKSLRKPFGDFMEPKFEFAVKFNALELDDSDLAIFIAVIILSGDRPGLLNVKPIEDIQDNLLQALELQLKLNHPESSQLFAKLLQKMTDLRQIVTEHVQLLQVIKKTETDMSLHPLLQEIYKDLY

[6] = target: T4, Bifunctional epoxide hydrolase 2 (Homo sapiens, UniProt P34913); assay: Inhibition of recombinant human full length sEH assessed as reduction in 6-methoxy-2-naphthaldehyde formation using PHOME as substrate preincubated for 30 to 45 mins followed by substrate addition and measured after 30 to 45 mins by fluorescence assay
T4 sequence (P34913 whole entry): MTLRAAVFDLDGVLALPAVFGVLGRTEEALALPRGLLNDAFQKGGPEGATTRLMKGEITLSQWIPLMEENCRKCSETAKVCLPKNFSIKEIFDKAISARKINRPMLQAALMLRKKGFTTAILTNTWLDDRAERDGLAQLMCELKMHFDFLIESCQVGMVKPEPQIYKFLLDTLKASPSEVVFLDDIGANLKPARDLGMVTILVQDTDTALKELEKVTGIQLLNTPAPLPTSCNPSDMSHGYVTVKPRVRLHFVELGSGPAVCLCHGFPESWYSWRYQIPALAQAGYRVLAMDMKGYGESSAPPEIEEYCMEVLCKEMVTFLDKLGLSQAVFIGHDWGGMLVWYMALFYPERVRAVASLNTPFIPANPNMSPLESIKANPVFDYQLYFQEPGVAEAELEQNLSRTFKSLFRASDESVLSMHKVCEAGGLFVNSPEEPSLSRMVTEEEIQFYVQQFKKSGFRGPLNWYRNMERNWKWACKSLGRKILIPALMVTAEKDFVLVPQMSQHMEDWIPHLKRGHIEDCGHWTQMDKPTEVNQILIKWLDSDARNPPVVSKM

HepG2 [7] = assay: Cytotoxicity agianst human HepG2 cells assessed as reduction in cell viability at 10 to 30 uM after 48 hrs by WST-1 assay; format: cell-based; conditions: hepg2, 48 h, dose 10-30 µM
[8] = Drug metabolism in rat liver microsomes assessed as metabolite formation after 60 mins by UPLC-MS analysis; format: ADME, Microsome; conditions: 1 h

Row | Activity [1] | IC50 [4] [nM] | IC50 [5] [nM] | IC50 [6] [nM] | Drug metabolism [8] | Compound | Activity (HepG2 [2]) | Activity (HepG2 [3]) | Activity (HepG2 [7])
1 | inactive | 202 |  |  |  | O=C(NCc1ccc(NS(=O)(=O)C2CC2)cc1C(F)(F)F)c1ccc2c(ccn2Cc2cccc(F)c2)c1 | Non-Toxic | Dose-dependent effect | 
2 | inactive | 46 | 1620 | 5 | Metabolite_Detected | CS(=O)(=O)Nc1ccc(CNC(=O)c2ccc3c(ccn3Cc3cccc(F)c3)c2)c(C(F)(F)F)c1 |  |  | Toxic
